Data from patent publication US8372808B2, “Suppression of glial fibrillary acidic protein” (Wisconsin Alumni Research Foundation, priority 2008, dated 2013).
Read-outs that look alike come from different tables or passages of the source.

Columns and labels:
[1] = test system: 2.2 kb human GFAP promoter; assay: hGFAP promoter luciferase activity assay in 172.9 cells (primary astrocytes from dual luciferase transgenic mice); type: cell-based; conditions: tertiary screen; 48 hr exposure; at the MTDcc
Experimental: Cell-based assays were performed as four different screens using enriched cortical primary astrocyte cultures developed from transgenic mice expressing both firefly and Renilla luciferase reporter genes were generated. Briefly, the'firefly luciferase was placed under the control of a 2.2 kb human GFAP promoter to monitor GFAP transcription, and the Renilla luciferase was placed under the control of a 0.5 kb human GAPDH (glyceraldehyde 3-phosphate dehydrogenase) promoter to monitor transcription of a housekeeping gene for signal normalization. See section B, below for more detail regarding the development of transgenic mouse strains. Cells used in the following examples (e.g., the cortical primary astrocyte cells termed “172.9 cells,” described below) were developed from the transgenic mice described in section B.
Briefly, the cortices from individual pups were freed of meninges and placed into DMEM (Gibco) without serum, mechanically disassociated into single cells, suspended in medium containing DMEM supplemented with 10% fetal bovine serum (FBS; Hyclone), 100 U/ml penicillin, 100 μg/ml streptomycin (Gibco), seeded into T25 flasks (one brain per flask), and maintained in a humidified 5% CO2 atmosphere at 37° C. […] Medium was changed every 3 days. At 14-16 days in vitro (DIV), the flasks were shaken overnight at 200 rpm to remove oligodendrocytes and microglia. […] The cells were then suspended in DMEM with 10% FBS and plated (“passage 2”) on either 35 mm dishes, […], or 96-well plates (Corning) as needed. Cells were grown for varying days in vitro (DIV) at passage 2 and then used for various experiments. Tissue culture dishes and plates were pre-coated with 100 μg/ml poly-L-lysine for 1 h in a humidified 5% CO2 atmosphere at 37° C., and then allowed to air dry. […] Cell density was measured with the Vi-CELL cell counter (Beckman Coulter) or hemocytometer by the trypan-blue exclusion method. For simplicity, cells are referred to as “172.9 cells.”
Briefly, 172.9 cells were plated on poly-L coated white 96-well plates at a density of 5000 cells per well, in 100 μl DMEM with 10% FBS. At twenty-four hours, cells were exposed to the different compounds at a final concentration of 10 μM (diluted from a 50 mM stock) prepared in new medium (DMEM with 10% FBS). […] After exposure to compounds, luciferase activity in the primary and secondary screenings was determined by adding 30 μl of Bright-Glo™ reagent (Promega) to the 100 μl of media and cells of each well in the white 96-well plates with the Biomek® FX liquid handler (Beckman Coulter). After incubation for 1 minute at room temperature, signals were measured with the Safire 2 plate reader using Magellan™ software (Tecan). Other specific methods and equipment are known in the art and can be used to measure luciferase expression levels. This assay method is termed the “hGFAP promoter luciferase activity assay.” A reduction in luciferase expression as determined by this assay is termed “hGFAP promoter luciferase reduction.” For some assays that were aimed at confirming results of the initial screens, the same amount of Bright-Glo™ reagent was applied to each well in 96-well plates and signals were detected with the GloRunner™ Microplate Luminometer (Turner Biosystems) using the Dual-Glo® luciferase assay according to the manufacturer's recommendations (E1910, Promega).
In the secondary screen, cells were plated in a 96-well plate as described above for the primary screen.
Some compounds were unavailable outside of the library collections, and could not be further tested.
Each compound and concentration was analyzed in quadruplicate wells.
Compounds were tested at eight different concentrations ranging from 0-20 μM. In addition, GFAP protein levels were measured using a sandwich ELISA, which has greater sensitivity and is more accurate than the cell-based ELISA used in the primary screens.

mGFAP protein = assay: cell-based GFAP protein level assay (cell-based ELISA) in 172.9 cells; design: species or system mouse; conditions: tertiary screen; 48 hr exposure; at the MTDcc
172.9 cells = assay: cell viability (CellTiter-Glo) / MTDcc in 172.9 cells
Experimental: Criterion for acceptable viability was >70% survival.
Cell viability was determined as follows. After exposure to each compound (duplicate wells per compound), 50 μl of CellTitier-Glo Luminescent Cell Viability Assay reagent (G7571, Promega) was added to the 100 μl of media present in each well, and the luminescent signal (reflecting intracellular ATP level) was detected with either a Victor 3-V plate reader (Perkin Elmer) or GloRunner Microplate Luminometer (Turner Biosystems). Cell viability was expressed as a percent of non-treated control cells.
A dose-response curve was created for each compound (0.1, 0.5, 1, 5, 10, 15, 20 μM) using 48 hr exposures. The MTDcc (“maximum tolerated dose—cell culture”) indicates the highest concentration that retained at least 70% cell viability. Each compound and concentration was analyzed in quadruplicate wells. EGCDG: epigallocatechin 3,5-digallate; NPPB: 5-nitro-2-phenylproplyaminobenzoic acid. As used herein, MTDcc refers to the MTD as determined by this assay under the above conditions.

[2] = tertiary screen, 48 hr exposure, 0.1-20 μM, highest concentration that retained at least 70% cell viability

| Compound | % GFAP reductions, luciferace expression from hGFAP promoter [1] [%] | % GFAP reductions, mGFAP protein via ELISA (mGFAP protein) [%] | MTDcc (172.9 cells; mouse, 48 h) [µM] | MTDcc (172.9 cells; [2]) [µM] | MTDcc (172.9 cells) [µM] |
| --- | --- | --- | --- | --- | --- |
| Cc1nc2sccn2c(=O)c1CCN1CCC(=C(c2ccc(F)cc2)c2ccc(F)cc2)CC1 [ritanserin] | 29 | 9.6 | 12.5 |  |  |
| NC[C@H]1O[C@H](O[C@H]2[C@H](O)[C@@H](O[C@H]3O[C@H](CO)[C@@H](O)[C@H](N)[C@H]3O)[C@H](N)C[C@@H]2N)[C@H](O)[C@@H](O)[C@@H]1O [kanamycin] | 22 | 11.3 | >20 |  |  |
| NC[C@H]1O[C@H](O[C@H]2[C@H](O)[C@@H](O)[C@H](N)C[C@@H]2N)[C@H](N)[C@@H](O)[C@@H]1O [neamine] | 5 | −0.8 |  | >20 |  |
| O=C(N[C@H](CO)[C@H](O)c1ccc([N+](=O)[O-])cc1)C(Cl)Cl [chloramphenicol] | 16 | 0.9 | >20 |  |  |
| CSc1ccc2c(c1)N(CCC1CCCCN1C)c1ccccc1S2 (centres unmarked) [thioridazine] | 37 | 17.7 | 5 |  |  |
| COP(=S)(OC)SCn1nnc2ccccc2c1=O [azinphos methyl] | 18 | 4.7 |  | >20 |  |
| CC(NCCc1ccc(O)cc1)C(O)c1ccc(O)cc1 (centres unmarked) [ritodrine] | 16 | 5.2 | >20 |  |  |
| OCCN1CCN(CCCN2c3ccccc3Sc3ccc(C(F)(F)F)cc32)CC1 [fluphenazine] | 23 | −6.7 | 7.5 |  |  |
| CCC(=O)O[C@]1(C(=O)CCl)[C@@H](C)C[C@H]2[C@@H]3CCC4=CC(=O)C=C[C@]4(C)[C@@]3(F)[C@@H](O)C[C@@]21C [clobetasol propionate] | 25 | −7.6 | >20 |  |  |
| CN1CCC(=C2c3ccccc3CC(=O)c3sccc32)CC1 [ketotifen] | 25 | 8.6 | >20 |  |  |
| CC(=O)Nc1ccc(OC(=O)c2ccccc2O)cc1 [4-acetamidophenyl salicylate] | 17 | 8.6 | >20 |  |  |
| CCOP(=S)(OCC)Oc1ccc2c(C)c(Cl)c(=O)oc2c1 [coumophos] | 10 | 0.4 |  |  | >20 |
| CCCCCCCCCCCC1=C(O)C(=O)C=C(O)C1=O [embelin] | 37 | 10.8 | 7.5 |  |  |
| CN(C)/N=N/c1[nH]cnc1C(N)=O [decarbazine] | 7 | 2.4 | >20 |  |  |
| CCOC(=O)C1=C(COCCN)NC(C)=C(C(=O)OC)C1c1ccccc1Cl (centres unmarked) [amlodipine] | 44 |  |  | 12.5 |  |
